Molecules are shown by their SMILES.

For the experiment, the system named is RS4;11 cells. Kind of experiment: RS4;11 cell viability assay (CellTiter Glo).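 Also: acute lymphoblastic leukemia line RS4,11, EC50 derived from percentage of viable cells after treatment relative to untreated controls, cell killing taken as a measure of Bcl-2 inhibition.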 Format: cell-based, human. As to conditions: Homo sapiens, RS4-11, 48 h, 50,000 cells per well, 10% human serum, 48 hours; read-out: RS4; 11 EC50 Values. Background: Cellular ATP, detected with luciferase, serves as a proxy for viable cell number.
Protocol: The acute lymphoblastic leukemia (ALL) cell line RS4;11 was used as the primary human cell line to assess the cellular activity of Bcl-2 selective agents in vitro and their efficacy in vivo.
Cell cytotoxicity EC50 values were assessed using CellTiter Glo (Promega) according to the manufacturer's recommendations. The EC50 values were determined as a percentage of viable cells following treatment compared to the untreated control cells.
For the molecule `CN1CCOC(CNc2ccc(S(=O)(=O)NC(=O)c3ccc(N4CCN(CC5=C(c6ccc(Cl)cc6)CC(C)(C)CC5)CC4)cc3Oc3cnc4[nH]ccc4c3)cc2[N+](=O)[O-])C1` (stereo not shown) [Example 134, 4-(4-{[2-(4-chlorophenyl)-4,4-dimethylcyclohex-1-en-1-yl]methyl}piperazin-1-yl)-N-[(4-{[(4-methylmorpholin-2-yl)methyl]amino}-3-nitrophenyl)sulfonyl]-2-(1H-pyrrolo[2,3-b]pyridin-5-yloxy)benzamide], the EC50 was determined as 2.51 nM.

Consider `COCCN1CCOC(CNc2ccc(S(=O)(=O)NC(=O)c3ccc(N4CCN(CC5=C(c6ccc(Cl)cc6)CC(C)(C)CC5)CC4)cc3Oc3cnc4[nH]ccc4c3)cc2[N+](=O)[O-])C1` (stereo not shown) [Example 135, 4-(4-{[2-(4-chlorophenyl)-4,4-dimethylcyclohex-1-en-1-yl]methyl}piperazin-1-yl)-N-{[4-({[4-(2-methoxyethyl)morpholin-2-yl]methyl}amino)-3-nitrophenyl]sulfonyl}-2-(1H-pyrrolo[2,3-b]pyridin-5-yloxy)benzamide], for which the EC50 is 2.37 nM.

Take `CC(=O)N1CCOC(CNc2ccc(S(=O)(=O)NC(=O)c3ccc(N4CCN(CC5=C(c6ccc(Cl)cc6)CC(C)(C)CC5)CC4)cc3Oc3cnc4[nH]ccc4c3)cc2[N+](=O)[O-])C1` (stereo not shown) [Example 136, N-[(4-{[(4-acetylmorpholin-2-yl)methyl]amino}-3-nitrophenyl)sulfonyl]-4-(4-{[2-(4-chlorophenyl)-4,4-dimethylcyclohex-1-en-1-yl]methyl}piperazin-1-yl)-2-(1H-pyrrolo[2,3-b]pyridin-5-yloxy)benzamide]: the EC50 came to 2.96 nM.

For `CC1(C)CCC(CN2CCN(c3ccc(C(=O)NS(=O)(=O)c4ccc(NCC5(F)CCOCC5)c([N+](=O)[O-])c4)c(Oc4cnc5[nH]ccc5c4)c3)CC2)=C(c2ccc(Cl)cc2)C1` [Example 138, 4-(4-{[2-(4-chlorophenyl)-4,4-dimethylcyclohex-1-en-1-yl]methyl}piperazin-1-yl)-N-[(4-{[(4-fluorotetrahydro-2H-pyran-4-yl)methyl]amino}-3-nitrophenyl)sulfonyl]-2-(1H-pyrrolo[2,3-b]pyridin-5-yloxy)benzamide], the EC50 came to 1.52 nM.

Turning to `CC1(C)CCC(CN2CCN(c3ccc(C(=O)NS(=O)(=O)c4ccc(NC5CCN(C6COC6)CC5)c([N+](=O)[O-])c4)c(Oc4cnc5[nH]ccc5c4)c3)CC2)=C(c2ccc(Cl)cc2)C1` [Example 139, 4-(4-{[2-(4-chlorophenyl)-4,4-dimethylcyclohex-1-en-1-yl]methyl}piperazin-1-yl)-N-({3-nitro-4-[(1-oxetan-3-ylpiperidin-4-yl)amino]phenyl}sulfonyl)-2-(1H-pyrrolo[2,3-b]pyridin-5-yloxy)benzamide], the EC50 stood at 16.8 nM.

As to `CC1(C)CCC(CN2CCN(c3ccc(C(=O)NS(=O)(=O)c4ccc(NC5CCN(C6CCC6)CC5)c([N+](=O)[O-])c4)c(Oc4cnc5[nH]ccc5c4)c3)CC2)=C(c2ccc(Cl)cc2)C1` [Example 140, 4-(4-{[2-(4-chlorophenyl)-4,4-dimethylcyclohex-1-en-1-yl]methyl}piperazin-1-yl)-N-({4-[(1-cyclobutylpiperidin-4-yl)amino]-3-nitrophenyl}sulfonyl)-2-(1H-pyrrolo[2,3-b]pyridin-5-yloxy)benzamide], the EC50 was 12.8 nM.

For `CC1(C)CCC(CN2CCN(c3ccc(C(=O)NS(=O)(=O)c4ccc(NC5CCN(C6CCOC(C)(C)C6)CC5)c([N+](=O)[O-])c4)c(Oc4cnc5[nH]ccc5c4)c3)CC2)=C(c2ccc(Cl)cc2)C1` (stereo not shown) [Example 141, 4-(4-{[2-(4-chlorophenyl)-4,4-dimethylcyclohex-1-en-1-yl]methyl}piperazin-1-yl)-N-[(4-{[1-(2,2-dimethyltetrahydro-2H-pyran-4-yl)piperidin-4-yl]amino}-3-nitrophenyl)sulfonyl]-2-(1H-pyrrolo[2,3-b]pyridin-5-yloxy)benzamide], the EC50 was determined as 20.4 nM.

With `CC1(C)CCC(CN2CCN(c3ccc(C(=O)NS(=O)(=O)c4ccc(N[C@H]5CCN(C6CC6)C5)c([N+](=O)[O-])c4)c(Oc4cnc5[nH]ccc5c4)c3)CC2)=C(c2ccc(Cl)cc2)C1` [Example 142, 4-(4-{[2-(4-chlorophenyl)-4,4-dimethylcyclohex-1-en-1-yl]methyl}piperazin-1-yl)-N-[(4-{[(3S)-1-cyclopropylpyrrolidin-3-yl]amino}-3-nitrophenyl)sulfonyl]-2-(1H-pyrrolo[2,3-b]pyridin-5-yloxy)benzamide], the EC50 turned out to be 345 nM.

`CC1(C)CCC(CN2CCN(c3ccc(C(=O)NS(=O)(=O)c4ccc(NC5CCN(C6CCOC6)CC5)c([N+](=O)[O-])c4)c(Oc4cnc5[nH]ccc5c4)c3)CC2)=C(c2ccc(Cl)cc2)C1` (stereo not shown) [Example 143, 4-(4-{[2-(4-chlorophenyl)-4,4-dimethylcyclohex-1-en-1-yl]methyl}piperazin-1-yl)-N-({3-nitro-4-[(1-tetrahydrofuran-3-ylpiperidin-4-yl)amino]phenyl}sulfonyl)-2-(1H-pyrrolo[2,3-b]pyridin-5-yloxy)benzamide]: the EC50 was found to be 19.1 nM.

Regarding `CC1(C)CCC(CN2CCN(c3ccc(C(=O)NS(=O)(=O)c4ccc(N[C@@H]5CCN(C6CC6)C5)c([N+](=O)[O-])c4)c(Oc4cnc5[nH]ccc5c4)c3)CC2)=C(c2ccc(Cl)cc2)C1` [Example 144, 4-(4-{[2-(4-chlorophenyl)-4,4-dimethylcyclohex-1-en-1-yl]methyl}piperazin-1-yl)-N-[(4-{[(3R)-1-cyclopropylpyrrolidin-3-yl]amino}-3-nitrophenyl)sulfonyl]-2-(1H-pyrrolo[2,3-b]pyridin-5-yloxy)benzamide], the EC50 worked out at 21.2 nM.

As to `CC1(C)CCC(CN2CCN(c3ccc(C(=O)NS(=O)(=O)c4ccc(NC[C@@H]5CCN(C6CCOCC6)C5)c([N+](=O)[O-])c4)c(Oc4cnc5[nH]ccc5c4)c3)CC2)=C(c2ccc(Cl)cc2)C1` [Example 145, 4-(4-{[2-(4-chlorophenyl)-4,4-dimethylcyclohex-1-en-1-yl]methyl}piperazin-1-yl)-N-{[3-nitro-4-({[(3S)-1-tetrahydro-2H-pyran-4-ylpyrrolidin-3-yl]methyl}amino)phenyl]sulfonyl}-2-(1H-pyrrolo[2,3-b]pyridin-5-yloxy)benzamide], the EC50 was 4 nM.

Turning to `CC(C)(CO)CNc1ccc(S(=O)(=O)NC(=O)c2ccc(N3CCN(CC4=C(c5ccc(Cl)cc5)CC(C)(C)CC4)CC3)cc2Oc2cnc3[nH]ccc3c2)cc1[N+](=O)[O-]` [Example 146, 4-(4-{[2-(4-chlorophenyl)-4,4-dimethylcyclohex-1-en-1-yl]methyl}piperazin-1-yl)-N-({4-[(3-hydroxy-2,2-dimethylpropyl)amino]-3-nitrophenyl}sulfonyl)-2-(1H-pyrrolo[2,3-b]pyridin-5-yloxy)benzamide], the EC50 is 19.2 nM.

In the case of `CC1(C)CCC(CN2CCN(c3ccc(C(=O)NS(=O)(=O)c4ccc(NCC5CCCN(S(C)(=O)=O)C5)c([N+](=O)[O-])c4)c(Oc4cnc5[nH]ccc5c4)c3)CC2)=C(c2ccc(Cl)cc2)C1` (stereo not shown) [Example 147, 4-(4-{[2-(4-chlorophenyl)-4,4-dimethylcyclohex-1-en-1-yl]methyl}piperazin-1-yl)-N-{[4-({[1-(methylsulfonyl)piperidin-3-yl]methyl}amino)-3-nitrophenyl]sulfonyl}-2-(1H-pyrrolo[2,3-b]pyridin-5-yloxy)benzamide], the EC50 is 26.2 nM.

Source of the values: patent US20240043404A1 (AbbVie Inc., priority 2009, published 2024).
